Measurements taken from PubChem BioAssay AID1996.
Converted amounts (≈) assume the structure as drawn.

details: buffer; pH 7.4; 200.0 µM

SMILES | solubility kinetic [µg/mL]
CCCC(C(=O)OCCN(CC)CC)(c1ccccc1)c1ccccc1.Cl | 47.4
CCNC(=S)NC1CC2CCCC(C1)N2Cc1ccc(C)cc1 (stereo not given) | 47.7 (≈ 144 µM)
Cc1ccn2c(C=O)c(-c3ccc(F)cc3)c(C=O)c2c1 | 8.5 (≈ 30.2 µM)
COc1ccc(OC)c(NC(=O)COC(=O)[C@H](Cc2ccccc2)NC(=O)c2ccco2)c1 | 5.7 (≈ 12.6 µM)
Cn1ccnc1SCC(=O)Nc1cccc(C#N)c1 | > 40.8
O=[N+]([O-])c1ccc(-c2ccc(/C=N/O)o2)cc1 | 8 (≈ 34.5 µM)
O=C(/C=C/c1ccccc1)N(Cc1cccc(Cl)c1)C1CCS(=O)(=O)C1 (stereo not given) | 14.1 (≈ 36.2 µM)
CCOC(=O)COn1c(=O)c(-c2ccccc2)[n+]([O-])c2ccccc21 | 35.2 (≈ 103 µM)
CCc1ccc(C(C)NC(=O)c2ccncc2)cc1 (stereo not given) | > 38.1
CSCC(C)N1CCC(CCC(=O)NC2CC2)CC1 (stereo not given) | > 42.7
CC1CC1C(=O)OCC(=O)N(C)CC(=O)Nc1ccc(F)cc1 (stereo not given) | > 48.4
O=C1NC(=Nc2ccccc2)S/C1=C\c1cccs1 | 1 (≈ 3.49 µM)
NS(=O)(=O)c1ccc(NNC(=O)c2ccc(Br)o2)c([N+](=O)[O-])c1 | > 60.8
CCOC(=O)C1=C(N)Oc2cc(O)ccc2C1c1cccc(Cl)c1 (stereo not given) | < 0.7
CCC(C)c1ccc(NC(=O)COC(=O)C2CCCC2)cc1 (stereo not given) | 8.8 (≈ 29 µM)
C=CCNC(=O)COc1ccccc1C#N | > 32.4
Cc1cc(NC(=O)CN2C(=O)NC(CC(C)C)C2=O)no1 (stereo not given) | > 44.1
C=CCn1c(=O)c(C(=O)NCc2ccc3c(c2)OCO3)c(O)c2ccccc21 | 1.3 (≈ 3.44 µM)
CC1CCC(NC(=O)C(C)N2C(=O)C3CCCCC3C2=O)CC1 (stereo not given) | > 48.1
CCOc1cccc(C(=O)Nc2ccc3oc(-c4cccnc4)nc3c2)c1 | < 0.3
CC(=O)Nc1ccc(SCc2c(C)noc2C)cc1 | > 41.5
COc1ccc(NC(=O)COc2ccc(C)cc2)c([N+](=O)[O-])c1 | < 0.3
C=CCOC(=O)C1=C(C)NC(=O)NC1c1ccc(N(C)C)cc1 (stereo not given) | 5.8 (≈ 18.4 µM)
CNc1nc(-c2ccccc2)[n+](-c2ccc(C)cc2)s1.[Br-] | 42.1

SMILES | solubility kinetic [µg/mL]
Cc1ccc(NC(=S)N(Cc2ccccc2)C(C)C)cc1 | 7.6 (≈ 25.5 µM)
Cc1oc(C(C)(C)C)cc1C(N)=O | > 27.2
CC1CCCCN1C(=O)c1ccc(Br)o1 (stereo not given) | 37.7 (≈ 139 µM)
COc1ccc(C2C(CN3CCOCC3)C(=O)N2c2ccccc2)cc1 (stereo not given) | > 52.9
COC(=O)c1cccc(NC(=O)c2cc3ccccc3o2)c1 | 13.5 (≈ 45.7 µM)
CCC(=NCCc1ccccc1)c1c(O)[nH]c(=O)[nH]c1=O | > 43.1
CC12CC3CC(C)(C1)CC(N)(C3)C2.Cl | 29.4
Cc1ccccc1Nc1ncc(C#N)c(N)n1 | 31.6 (≈ 140 µM)
O=C(Cn1c(=O)n(CC2CS2)c2ccccc21)N1CCCCC1 (stereo not given) | > 49.7
COC1Cc2ccccc2N(C(N)=O)c2ccccc21 (stereo not given) | > 40.2
CCN1CCN(CCC(=O)Nc2ccc(F)c(F)c2)CC1 | > 44.6
O=C(Nc1cccc2cccnc12)c1ccc(Br)cc1Br | < 0.4
Cc1ccc(S(=O)(=O)N2CCN(C(=O)COC(=O)COc3cccc(C(F)(F)F)c3)CC2)c(C)c1 | 8.7 (≈ 16.9 µM)
Cc1cccc(NC(=S)Nc2ccccn2)c1 | 1.6 (≈ 6.58 µM)
CC(=O)Nc1cccc2c1Cc1ccccc1-2 | 11.7 (≈ 52.4 µM)
O=S(=O)(NCc1csc(-c2cccs2)n1)c1cccs1 | 49 (≈ 143 µM)
O=C(CNCCO)Nc1ccc(F)c(Cl)c1 | > 37
Cn1c(=S)n(C)c2ccccc21 | > 26.7
O=C(NCCCCNC(=O)C(F)(F)F)C(F)(F)F | > 42
C/C(=N\NC(=O)c1cccnc1)c1ccccc1 | > 35.9
Cc1cc2occ(CC(=O)NC3(C)CCS(=O)(=O)C3)c2cc1C (stereo not given) | > 50.3
CC(C)N=c1cc2n(-c3ccc(Cl)cc3)c3ccccc3nc-2cc1Nc1ccc(Cl)cc1 | 0.3 (≈ 0.634 µM)
Cc1cc2c(cn1)C(CCC#N)(CCC#N)c1ccccc1-2 | > 43.1
NC(=O)C1CCN(CC(=O)NC(=O)NC2CCCC2)CC1 | > 44.5

SMILES | solubility kinetic [µg/mL]
CCOC(=O)c1ccc(S(=O)(=O)N2CCN(C/C=C/c3ccccc3)CC2)cc1 | 2.8 (≈ 6.75 µM)
COc1cc(CNCCc2ccc3c(c2)OCO3)ccc1O.Cl | > 50.7
Cc1ccc(OCCNS(=O)(=O)c2ccc(Cl)cc2)cc1 | 5.6 (≈ 17.2 µM)
CCc1ccccc1N1CC(C(=O)N2Cc3ccccc3CC2C(N)=O)CC1=O (stereo not given) | > 58.7
COc1ccccc1NC(=O)C1CCCN(C(=O)NCc2ccccc2)C1 (stereo not given) | > 55.1
CN(Cc1ccco1)C(=O)CCc1nc2sc3c(c2c(=O)[nH]1)CCCC3 | 22.4 (≈ 60.3 µM)
O=C(O)CSCC(=O)Nc1ccccn1 | > 33.9
O=C(OCC(O)COc1ccccc1)c1ccc([N+](=O)[O-])cc1 (stereo not given) | 43.7 (≈ 138 µM)
C=CCOc1ccc(/C=C2\SC(=Nc3cccnc3)NC2=O)cc1 | 0.7 (≈ 2.07 µM)
FC(F)(F)c1ccccc1CNCc1ccncc1 | 29.4 (≈ 110 µM)
OC(c1ccc(F)cc1)C(CN1CCOCC1)c1ccccc1 (stereo not given) | > 47.3
COn1c(C)c(C)c2c3nonc3ccc21 | 8.9 (≈ 41 µM)
CC(=O)c1ccc(NC(=S)N2CCN(c3ccccn3)CC2)cc1 | 3.1 (≈ 9.11 µM)
CCCCn1c(=O)c(C(=O)Nc2ccccc2C)c(O)c2ccccc21 | < 0.4
O=C(NCC1CCCO1)c1cc(C(=O)C2CCCCC2)c[nH]1 (stereo not given) | > 45.7
CCOC(=O)c1cc(Sc2ccccc2N)cc(C(=O)OCC)n1 | < 0.4
O=C(Nc1ccc(F)cc1)Nc1csc2ccccc12 | 0.5 (≈ 1.75 µM)
CC(C)COC(=O)N1C[C@H](O)C[C@H]1C(=O)Nc1ccc(Cl)cc1 | > 51.1
COc1cccc(NC(=O)c2cc3ccccc3o/c2=N\O)c1 | 22.2 (≈ 71.5 µM)
CC(=O)C1=C(O)C(=O)N(Cc2ccccc2)C1c1ccc(Cl)cc1 (stereo not given) | > 51.3
CN1C(=O)NC(c2cccc(F)c2)C2=C1CC(C)(C)CC2=O (stereo not given) | > 45.4
COC(=O)c1sc(NC(=O)COc2c(C)cccc2C)nc1C | 0.4 (≈ 1.2 µM)
COc1ccc(OC)c(NC(=S)N2CCN(C(=O)C3CCCO3)CC2)c1 (stereo not given) | > 56.9
CC(C)CC(=O)c1c[nH]c(C(=O)NCc2ccc(F)cc2)c1 | 0.7 (≈ 2.32 µM)

SMILES | solubility kinetic [µg/mL]
NC(=O)CS(=O)(=O)c1nc2ccccc2n1Cc1ccccn1 | > 49.6
O=C(NC(=S)N1CCN(C2CCCCC2)CC1)c1ccccc1 | > 49.7
CCNC(=O)c1ccccc1-c1nc(-c2ccccc2OC)no1 | 42.3 (≈ 131 µM)
COc1ccc(CCNCCN2CCOCC2)cc1.Cl | 24.9
CC(C)c1nnc(NC(=O)C2CCCO2)s1 (stereo not given) | > 36.2
Cc1cccc(NC(=O)CSc2n[nH]c(-c3cccnc3)n2)c1 | > 48.8
COc1cc(SC)ccc1C(=O)Nc1ccccn1 | 9 (≈ 32.8 µM)
Cc1ccccc1C(=O)NC(C(N)=O)P(=O)(OC(C)C)OC(C)C (stereo not given) | > 53.5
CCS(=O)(=O)N1CCN=C1SCc1ccccc1 | > 42.7
O=C(/C=C/c1ccc(F)cc1)c1ccc(N2CCOCC2)cc1 | 2.3 (≈ 7.39 µM)
CCn1cc(S(=O)(=O)N2CCCC2)cn1 | > 34.4
CC(=O)N(OCc1ccc(OC(C)C)c(Cl)c1)C(C)=O | 38.1 (≈ 127 µM)
O=S(=O)(O)c1cnccc1Nc1cccc(C(F)(F)F)c1 | > 47.7
CCCN(CCC)C(=O)Nc1ccc(F)cc1F | > 38.4
COc1ccc(S(=O)Cc2ccc(C(=O)NC3CC3)o2)cc1 (stereo not given) | > 47.9
CC(OCCN(C)C)C(=O)C12CC3CC(CC(C3)C1)C2.Cl (stereo not given) | 46.8
CN(C)C(=S)Nc1nc2ccccc2s1 | 5.4 (≈ 22.8 µM)
CCCCN(CCO)c1ncnc2sc(-c3ccccc3)cc12 | < 0.2
COc1ccc(NC(=O)CCSc2nc(C)cs2)cc1 | > 46.3
CCOc1cccc(CN2CCC(CCC(=O)NC3CC3)CC2)c1O | 44.4 (≈ 128 µM)
Cc1nc([N+](=O)[O-])cn1CC(=O)c1ccc(OC(F)(F)F)cc1 | 3.3 (≈ 10 µM)
CCN(Cc1ccncc1)Cc1c(O)ccc2ccccc12 | 31.1 (≈ 106 µM)
COc1ccc([C@@H](O)[C@@H](N)c2ccccc2)cc1.Cl | 41.7
COc1ccc(CCN=C(N)NS(=O)(=O)c2ccc(C)c(C)c2)cc1OC | > 58.7

SMILES | solubility kinetic [µg/mL]
O=C(COC(=O)c1cc(Cl)cc(Cl)c1)NCc1ccco1 | 28.4 (≈ 86.5 µM)
O=Cc1cccc(Oc2ncccn2)c1 | > 30
Cc1cccc(NC(=O)Cc2ccc(Br)cc2)n1 | 38.6 (≈ 126 µM)
Cc1ccc(C(=O)OCC(=O)NCCc2ccc(S(N)(=O)=O)cc2)o1 | > 55
CC(=O)Nc1ccc(OC(=O)N2CCCC2)cc1 | > 37.2
O=C(CSc1nc2ccccc2c(=O)n1CCCN1CCOCC1)Nc1ccccc1OC(F)F | > 75.7
CC1CCc2c(sc(NC(=O)c3ccco3)c2C(=O)O)C1 (stereo not given) | > 45.8
O=C(Nc1cccnc1)OC1CCCC1 | 29.5 (≈ 143 µM)
Cc1cccc(NC(=O)CN2C(=O)CSC2=O)c1 | > 39.6
O=C(COc1ccccc1)N1CCCC1 | 26.7 (≈ 130 µM)
COc1ccccc1CNC(=O)CN1C(=O)NC2(CCOc3ccccc32)C1=O (stereo not given) | 7.9 (≈ 20 µM)
Cc1ccc(S(=O)(=O)CCC(=O)OC(C)c2nnc(-c3cccs3)o2)cc1 (stereo not given) | > 61
COc1ccc(NC(=O)CCNC(=O)c2ccco2)cc1OC | 47.3 (≈ 149 µM)
Cc1cccc(C(=O)NCC(c2ccco2)N(C)C)c1 (stereo not given) | 36.9 (≈ 135 µM)
O=C(NCC(=O)N1CC=C(c2ccccc2)CC1)c1ccc(OC(F)F)cc1 | 8.2 (≈ 21.2 µM)
N#CC1(NC(=O)CN2CCc3ccccc3C2)CCCC1 | > 42.5
CCOC(=O)N1CCN(C(=O)c2ccccc2NC(C)=O)CC1 | > 47.9
CC(=O)Nc1ccc(C(=O)CN2C(=O)NC3(CCCc4ccccc43)C2=O)c(F)c1 (stereo not given) | 53 (≈ 129 µM)
CC(=O)c1cccc(NC(=S)Nc2ccc(F)cc2)c1 | 30.3 (≈ 105 µM)
N#CCSc1nc2ccccc2o1 | 14.3 (≈ 75.2 µM)
O=C(CS(=O)(=O)c1ccccc1)NCc1ccco1 | 40.7 (≈ 146 µM)
CC12CCC(C(=O)O)(c3nc4cc([N+](=O)[O-])ccc4nc31)C2(C)C (stereo not given) | > 49.1
O=C(O)c1cccc(S(=O)(=O)NCC2COc3ccccc3O2)c1 (stereo not given) | > 52.4
COc1cc2c(cc1OC)C(C)N(C(=O)Nc1ccc(F)cc1)CC2 (stereo not given) | 18.4 (≈ 53.4 µM)
